In patent publication US20240016804A1, “METHODS AND MATERIALS FOR ASSESSING AND TREATING HYPERTENSIVE DISORDERS” (Mayo Foundation for Medical Education and Research, priority 2019, published 2024):

System: PE-MSC
Experiment: Apoptosis assay for MSC (Annexin V, IncuCyte S3, Red Object Count), PE-MSC
Type: cell-based, human
Conditions: dose response 1, 2, 5 and 10 μM, 24 hours
Procedure: MSC isolation from adipose tissue: Abdominal fat tissue (3-5 g) obtained during C-section was cultured at 37° C./5% CO2 in Advanced MEM media supplemented with 5% platelet lysate (PLTmax, Mill Creek Life Sciences, Rochester, MN), which provides a robust growth medium. The third passage of cells was used for phenotype/function analysis. MSC were positive to CD90, CD44, and CD105, negative to CD34, CD31, and CD45 by Flow Cytometry (FlowSight™, Amnis, Seattle, WA), and were able to transdifferentiate into adipocytes, chondrocytes, and osteocytes. For studies in non-pregnant subjects, MSC were isolated from three healthy kidney donors at time of kidney donation.
Apoptosis was assessed by Annexin V reagent (Essen Bioscience) using the IncuCyte S3 Live-Cell Analysis System (Essen Bioscience).
The initial dose response experiments were performed to determine the optimal Dasatinib concentration using the apoptotic assay and IncuCyte S3 Live-Cell Analysis System (Essen Bioscience). Approximately 1×10^6 MSC (PE and NP) in passage #4, were treated with the senolytic drug, Dasatinib at concentrations of 1, 2, 5 and 10 μM (dissolved in 0.1% DMSO) for 24 hours. Three groups were analyzed: 1) cells incubated in media, 2) vehicle: cells treated with 0.1% DMSO, 3) cells treated with Dasatinib. […] Annexin V, added at the beginning of the treatment, labeled apoptotic cells yielding red fluorescence. […]

SMILES: Cc1nc(Nc2ncc(C(=O)Nc3c(C)cccc3Cl)s2)cc(N2CCN(CCO)CC2)n1 [Dasatinib]
- Optimal concentration (from ratios of apoptotic cells): 1 µM
